These results are taken from ChEMBL document CHEMBL1201862, “PubChem BioAssay data set” (2004).

Each structure is given as a SMILES string.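 Assay format: 96-well plates, 48-hour exposure. GI50 = concentration required for 50% inhibition of growth.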 The source made the active and inactive calls. Rule as the data show it: active = GI50 up to about 1.1 µM and inactive = higher.

What all share (experiment): NCI tumour cell line growth inhibition, 48 h
Experiment [1] concerns RPMI-8226.
The test system of experiment [2] is U-251.
Experiment [3] deals with A498.
Experiment [4] has as its system COLO 205.
In experiment [5] the test system is HOP-62.
Experiment [6] concerns MOLT-4.
Experiment [7] has as its system HCC 2998.
Experiment [8] deals with OVCAR-4.
The test system of experiment [9] is HOP-92.
In experiment [10] the test system is SK-MEL-5.
Experiment [11] has as its system Malme-3M.
The subject of experiment [12] is HT-29.
Experiment [13] deals with ACHN.
Experiment [14] relates to HCT-116.
For experiment [15], the system named is NCI-H226.
In experiment [16] the test system is SF-295.

With `Cc1cccc(C)c1NC(=O)CCCC(=O)C(C#N)c1ccc(Cl)cc1` (configuration not stated), the GI50 in experiment [1], in experiment [2], in experiment [3], in experiment [4], in [5] and in [6] was > 100 µM (inactive) each time. For the same compound, the GI50 in [7], in experiment [8], in [9], in [10], in experiment [11] and in [12] was > 100 µM (inactive) throughout. Moreover, the GI50 in experiment [13], in [14], in experiment [15] and in experiment [16] was > 100 µM (inactive) each time.
For `Cc1cc(O)nc(CNC(=O)c2cccc(C(=O)NCc3cc(O)nc(C)n3)c2)n1`, the GI50 in experiment [1], in experiment [2], in experiment [3], in [4], in experiment [5] and in experiment [6] was > 100 µM (inactive) throughout. For the same compound, the GI50 in experiment [7], in experiment [8], in experiment [9], in [10], in experiment [11] and in [12] was > 100 µM (inactive) in each case. The GI50 in experiment [13], in [14], in experiment [15] and in experiment [16] was > 100 µM (inactive) throughout.
In the case of `CSC(=N)N1N=C2c3ccccc3CC[C@@H]2[C@@H]1c1ccccc1`, the GI50 in experiment [1] was 12.1 µM (inactive); in [2], 17.1 µM (inactive); in experiment [3], 16.7 µM (inactive); in experiment [4], 13.1 µM (inactive); in experiment [5] it was 15.7 µM (inactive); in [6] it was 9.71 µM (inactive). The GI50 in experiment [7] was 15 µM (inactive); in [8], 14.8 µM (inactive); in experiment [9], 5.16 µM (inactive); in [11], 12.8 µM (inactive); in experiment [12], 10.3 µM (inactive); in [13], 18.3 µM (inactive). The values for the GI50 in experiment [14], in [15] and in experiment [16] were 4.8 µM (inactive), 9.73 µM (inactive) and 14.4 µM (inactive), respectively.
Take `Cc1cccc(C2=C/C(=C(\SS/C(C(=O)c3ccc(OCC(=O)O)c(Cl)c3Cl)=C3\C=C(c4cccc(C)c4)SS3)C(=O)c3ccc(OCC(=O)O)c(Cl)c3Cl)SS2)c1`: the GI50 was 16.9 µM (inactive) in [1]; 4.51 µM (inactive) in experiment [2]; 24.4 µM (inactive) in experiment [3]; 7.94 µM (inactive) in [4]; 47.1 µM (inactive) in experiment [5]; 13.6 µM (inactive) in experiment [6]. Moreover, the GI50 is 31 µM (inactive) in [7]; 17.2 µM (inactive) in experiment [8]; 5.45 µM (inactive) in experiment [9]; 15.9 µM (inactive) in experiment [10]; 25.5 µM (inactive) in experiment [11]; 27.7 µM (inactive) in experiment [12]. The GI50 was 12.4 µM (inactive) in [13], 10.2 µM (inactive) in experiment [14], 12.1 µM (inactive) in experiment [15] and 24.5 µM (inactive) in [16].
With `Cc1ccc(NC(=O)CC(=O)n2nc(-c3ccccc3)c(/N=N/c3ccc(Cl)cc3)c2-c2ccccc2)cc1`, the GI50 in experiment [1] is 23.3 µM (inactive); in [3], > 100 µM (inactive); in [4], 35 µM (inactive); in experiment [5] it was 50.6 µM (inactive); in experiment [6], 83.9 µM (inactive); in [7], 84.5 µM (inactive). In addition, the GI50 is 23.3 µM (inactive) in experiment [8]; 39.7 µM (inactive) in experiment [9]; > 100 µM (inactive) in experiment [10]; > 100 µM (inactive) in experiment [11]; 17.9 µM (inactive) in experiment [12]; 27.6 µM (inactive) in experiment [13]. For the same compound, the GI50 in [14] was 19.5 µM (inactive); in experiment [15], > 100 µM (inactive); in [16], 58.9 µM (inactive).
Regarding `CCCCCC(=O)N[C@H]1CCc2cc(O)c(O)c(O)c2-c2ccc(SC)c(=O)cc21`, the GI50 in experiment [1] is 70.5 µM (inactive); in experiment [2], 27.9 µM (inactive); in [3], 29 µM (inactive); in [4], 23.3 µM (inactive); in experiment [5] it was 47 µM (inactive); in experiment [6], 27.8 µM (inactive). Further, the GI50 is 32.9 µM (inactive) in experiment [7]; 18.1 µM (inactive) in experiment [8]; 25.7 µM (inactive) in experiment [9]; 28.4 µM (inactive) in experiment [10]; > 80.5 µM (inactive) in [11]; 32.7 µM (inactive) in experiment [12]. Besides, the GI50 in [13] was > 100 µM (inactive); in experiment [14], 18.8 µM (inactive); in experiment [15], 28.2 µM (inactive); in experiment [16], 23.4 µM (inactive).
On to `CCC(CO)COC(=O)/C=C/C(=O)OCC(CC)CO` (configuration not stated), for which the GI50 in [1] was 33.3 µM (inactive); in [2], > 100 µM (inactive); in [3] it was > 100 µM (inactive); in [4], > 100 µM (inactive); in experiment [5] it was > 100 µM (inactive); in experiment [6] it was 45.1 µM (inactive). The GI50 is > 100 µM (inactive) in experiment [7]; > 100 µM (inactive) in experiment [8]; > 81.8 µM (inactive) in experiment [9]; > 100 µM (inactive) in [10]; > 61 µM (inactive) in [11]; > 91 µM (inactive) in experiment [12]. The GI50 in [13] was > 100 µM (inactive); in experiment [14], > 74.3 µM (inactive); in [15], > 100 µM (inactive); in experiment [16], > 100 µM (inactive).
As to `O=C(Nc1cccc(O)c1)C(=O)C(C(=O)c1ccc(Cl)c(Cl)c1)C1OC(=O)c2ccccc21` (configuration not stated), the GI50 is 16 µM (inactive) in experiment [1]; 8.02 µM (inactive) in experiment [2]; 19.5 µM (inactive) in experiment [3]; 15.9 µM (inactive) in [4]; 5.01 µM (inactive) in experiment [6]; 15.5 µM (inactive) in experiment [7]. Further, the GI50 is 13.3 µM (inactive) in [8]; 22.5 µM (inactive) in experiment [9]; 19.7 µM (inactive) in experiment [10]; 14.4 µM (inactive) in experiment [11]; 27.4 µM (inactive) in experiment [12]; 14.6 µM (inactive) in [13]. The GI50 in experiment [14] was 25.7 µM (inactive); in experiment [15], 3.46 µM (inactive); in [16] it was 20.3 µM (inactive).
As for `Cn1cnc([N+](=O)[O-])c1Sc1nnnn1-c1ccccc1`, the GI50 is 11.4 µM (inactive) in [1]; 13 µM (inactive) in experiment [2]; 18.7 µM (inactive) in experiment [3]; 8.09 µM (inactive) in experiment [4]; > 100 µM (inactive) in [5]; 2.17 µM (inactive) in experiment [6]. In addition, the GI50 was 18.5 µM (inactive) in [7]; 10.4 µM (inactive) in [8]; 2.72 µM (inactive) in experiment [9]; 16.1 µM (inactive) in [10]; 7.76 µM (inactive) in [11]; 15.7 µM (inactive) in [12]. Also, the GI50 is 13.9 µM (inactive) in experiment [13], 11.3 µM (inactive) in experiment [14], 17.3 µM (inactive) in [15] and 17.8 µM (inactive) in [16].
As for `CCOC(=O)/C(=C/c1ccccc1Br)P(=O)(OCC)OCC`, the GI50 is 0.815 µM (active) in experiment [1]; 1.59 µM (inactive) in experiment [2]; 3.19 µM (inactive) in experiment [3]; 3.72 µM (inactive) in experiment [5]; 2.28 µM (inactive) in experiment [6]; 1.78 µM (inactive) in [7]. For the same compound, the GI50 in experiment [8] is 1.58 µM (inactive); in experiment [9], 1.46 µM (inactive); in experiment [10] it was 1.63 µM (inactive); in experiment [11], 1.84 µM (inactive); in experiment [12], 2.82 µM (inactive); in experiment [13] it was 2.57 µM (inactive). Further, the GI50 in experiment [14] was 3.15 µM (inactive); in [15] it was 3.07 µM (inactive); in experiment [16], 3.96 µM (inactive).
`C=CCCCC(C#N)(c1ccccc1)N1CCCC1` (configuration not stated): the GI50 in [1], in experiment [2], in experiment [3], in experiment [4], in experiment [5] and in experiment [6] was > 100 µM (inactive) in each case. For the same compound, the GI50 in [7], in [8], in experiment [9], in experiment [10], in [11] and in experiment [12] was > 100 µM (inactive) in each case. Further, the GI50 in experiment [13], in experiment [14], in [15] and in [16] was > 100 µM (inactive) each time.
Turning to `NNC(=O)N/N=C1\CNC(=O)C(=O)C1c1nc2ccccc2s1` (configuration not stated), the GI50 in experiment [1], in experiment [2], in experiment [3], in experiment [4], in experiment [5] and in experiment [7] was > 100 µM (inactive) each time. Besides, the GI50 in experiment [8], in experiment [9], in experiment [10], in experiment [11], in [12] and in experiment [13] was > 100 µM (inactive) in each case. Further, the GI50 in [14], in experiment [15] and in experiment [16] was > 100 µM (inactive) each time.
Turning to `COc1nc(OC)nc(Sc2ccc(Sc3ccc(Sc4nc(OC)nc(OC)n4)cc3)cc2)n1`, the GI50 in experiment [1], in [2], in experiment [3], in experiment [4], in [6] and in experiment [7] was > 100 µM (inactive) throughout. The GI50 in experiment [8], in experiment [9], in experiment [10], in experiment [11], in experiment [12] and in [13] was > 100 µM (inactive) throughout. Besides, the GI50 in experiment [14], in experiment [15] and in experiment [16] was > 100 µM (inactive) throughout.
